From patent US11518740B2, “Pleuromutilin (phenylthio)acetic acid ester with anti-drug resistant bacteria activity and a method of preparing the same” (SHAANXI UNIVERSITY OF SCIENCE AND TECHNOLOGY, priority 2021, dated 2022)

How the values were obtained:
Assay type in all cases: cell-based
[1] = system: multi-resistant Staphylococcus aureus 222; experiment: Paper diffusion method drug sensitivity test, MRSA-222; conditions: for inhibitory effect (in words): multi-drug resistant Staphylococcus aureus 222, summary of FIGS. 1-3 and Table 1; for Zone of inhibition: strain MRSA-222, drug sensitive paper 30 μg/tablet, 37° C., 24 h
Method: (§1) The antimicrobial efficacy was determined by a paper diffusion method drug sensitivity test.
(§2) Experimental strains: multi-resistant Staphylococcus aureus 171, multi-resistant Staphylococcus aureus 222, multi-resistant Staphylococcus aureus 596. The experimental strains were identified by Huashan Hospital Affiliated to Fudan University (Institute of Antibiotic of Fudan University).
(§3) Drug sensitive paper: The drug sensitive paper is a special drug sensitive paper with a diameter of 6.35 mm and a water absorption of 0.02 mL. The control drug was vancomycin (30 μg/tablet); the test drugs were pleuromutilin (phenylithio)acetic acid ester (30 μg/tablet).
(§4) Reagents: LB agar medium, LA broth medium, dichloromethane.
(§5) The experimental strains were inoculated in non-selective medium and placed in air at 37° C. for 24 h. Pick a single colony that grows well and inoculate it into broth medium, incubate at 35° C.±2° C. for 6 hours, and use LA broth medium to calibrate the concentration of the bacterial solution to 0.5 Mie turbidimetric tube (1.5×10^8 CFU/mL). A bacterial suspension is obtained.
as §5, with “([…]” for “(1.5×10^8”
(§6) LB dry powder was weighed, sterilized at 103.4 Kpa, 121.3° C. high-pressure steam for 15 min, and then placed it in a 40° C.-50° C. water bath. A sterile empty plate (inner diameter 9 cm) was placed on the surface of the ultra-clean table water table, and […] to the plate. The thickness of each plate was 3 mm to 4 mm. After the plate was cooled at room temperature, it was stored in the refrigerator at 2° C.-8° C. A sterile cotton swab was used to dip the bacterial solution and to evenly coat the surface of the LB plate 3 times. After inoculation of the bacterial suspension, the LB plate was dried at room temperature for 3 min to 5 min. Sterile forceps were used to closely attach the antibacterial drug paper to the dish. The dish was put upside down and placed in a 37° C. incubator for 24 h. The results were observed by measuring the diameter. Taking 0.5% DMSO solution as a negative control, the antibacterial activity is expressed by the diameter of the inhibition zone. The inhibition zone≥17 mm, sensitive; the inhibition zone of 15 mm-16 mm, intermediary; the inhibition zone≤14 mm, drug resistance.

[2] = system: multi-resistant Staphylococcus aureus 171; experiment: Paper diffusion method drug sensitivity test, MRSA-171; conditions: for inhibitory effect (in words): multi-drug resistant Staphylococcus aureus 171, summary of FIGS. 1-3 and Table 1; for Zone of inhibition: strain MRSA-171, drug sensitive paper 30 μg/tablet, 37° C., 24 h
Method: as §1, §2, §3, §4, §5
as §5, with “([…]” for “(1.5×10^8”
as §6

[3] = system: multi-resistant Staphylococcus aureus 596; experiment: Paper diffusion method drug sensitivity test, MRSA-596; conditions: for inhibitory effect (in words): multi-drug resistant Staphylococcus aureus 596, summary of FIGS. 1-3 and Table 1; for Zone of inhibition: strain MRSA-596, drug sensitive paper 30 μg/tablet, 37° C., 24 h
Method: as §1, §2, §3, §4, §5
as §5, with “([…]” for “(1.5×10^8”
as §6

SMILES | inhibitory effect (in words) [1] | Zone of inhibition [1] | inhibitory effect (in words) [2] | Zone of inhibition [2] | inhibitory effect (in words) [3] | Zone of inhibition [3]
C=C[C@]1(C)C[C@@H](OC(=O)CO)[C@]2(C)[C@H](C)CC[C@]3(CCC(=O)[C@H]32)[C@@H](C)[C@@H]1O [Pleuromutilin] | no inhibitory effect | 0 mm | no inhibitory effect | 0 mm | no inhibitory effect | 0 mm
CN[C@H](CC(C)C)C(=O)N[C@H]1C(=O)N[C@@H](CC(N)=O)C(=O)N[C@H]2C(=O)N[C@H]3C(=O)N[C@H](C(=O)N[C@H](C(=O)O)c4cc(O)cc(O)c4-c4cc3ccc4O)[C@H](O)c3ccc(c(Cl)c3)Oc3cc2cc(c3O[C@@H]2O[C@H](CO)[C@@H](O)[C@H](O)[C@H]2O[C@H]2C[C@](C)(N)[C@H](O)[C@H](C)O2)Oc2ccc(cc2Cl)[C@H]1O [Vancomycin] |  | 18 mm |  | 17 mm |  | 21 mm
C=C[C@]1(C)CC(OC(=O)COC(=O)CSc2ccccc2)[C@]2(C)[C@H](C)CC[C@]3(CCC(=O)[C@H]32)[C@@H](C)[C@@H]1O (some centres unmarked) | strong inhibitory effects | 15 mm | strong inhibitory effects |  | strong inhibitory effects | 23 mm
O=C(O)CSc1ccccc1 [(Phenylithio)acetic acid] | no inhibitory effect | 0 mm | no inhibitory effect | 0 mm | no inhibitory effect | 0 mm
